pEC50: −log10 of the molar value.
Legend:
Type in all cases: cell-based
HBV [1] = assay: Anti-HBV activity in HepG2.2.15 stable transfected cell line, HBV DNA from secreted virions by realtime PCR; settings: Hepatitis B virus, read-out: HBV - HepG2.15
HBV [2] = assay: Anti-HBV activity in HepG2.117 inducible HBV producing cell line (Tet-off), intracellular HBV DNA by realtime PCR; settings: Hepatitis B virus, read-out: HepG2 117 EC50
[3] = Cytotoxicity in HepG2 cells, Resazurin assay; settings: human, 4 days incubation, Resazurin viability
Description: Cytotoxicity of the compounds was also tested using HepG2 cells, incubated for 4 days in the presence of compounds. The viability of the cells was assessed using a Resazurin assay.

[4] = 144 h, HepG2.2.15 cells, 6 days of treatment, HBV DNA from secreted virions
[5] = 72 h, HepG2.117 cells, 3 days of treatment, intracellular HBV DNA

| SMILES | pEC50 (HBV [1]; [4]) | pEC50 (HBV [2]; [5]) | CC50 at 4 days [3] | pEC50 (HBV [1]; HepG2.2.15, 144 h) | pEC50 (HBV [2]; HepG2.117, 72 h) |
| --- | --- | --- | --- | --- | --- |
| Cn1nc(Nc2ccc(F)c(C(F)F)c2)c2cc(S(=O)(=O)N[C@H]3CCOC3)ccc21 [Compound 16] | 5.89 | 5.35 | > 25 µM |  |  |
| Cc1cc(Nc2ncc3ccc(S(=O)(=O)N[C@H]4CCOC4)cn23)ccc1F [Compound 18] | 5.77 | < 4.60 | > 25 µM |  |  |
| CC(C)NS(=O)(=O)c1ccc2cnc(Nc3ccc(F)c(C(F)F)c3)n2c1 [Compound 17] | 6.25 | 4.85 | > 25 µM |  |  |
| Cc1cc(Nc2nnc3ccc(S(=O)(=O)NC(C)C)cn23)ccc1F [Compound 19] | 5.92 | 5.47 | > 25 µM |  |  |
| O=S(=O)(NC1CCCC1)c1ccc2[nH]nc(Nc3ccc(F)cc3)c2c1 [Compound 5] | 6.00 | 5.74 | > 25 µM |  |  |
| COC(=O)n1nc(Nc2ccc(F)cc2)c2cc(S(=O)(=O)NC3CCCC3)ccc21 [Compound 10] | 4.33 | < 4.60 | > 25 µM |  |  |
| CC(C)n1nc(Nc2ccc(F)cc2)c2cc(S(=O)(=O)NC3CCCC3)ccc21 [Compound 7] | < 4.30 | < 4.60 | > 25 µM |  |  |
| CC(C)NS(=O)(=O)c1ccc2c(c1)c(Nc1ccc(F)c(C(F)F)c1)nn2C [Compound 15] | 6.36 | 5.55 | > 25 µM |  |  |
| O=S(=O)(NC1CCCCC1)c1ccc2onc(Nc3ccc(F)cc3)c2c1 [Compound 4] |  |  | > 25 µM | 6.13 | 5.92 |
| Cn1nc(Nc2ccc(F)cc2)c2cc(S(=O)(=O)NC3CCCC3)ccc21 [Compound 6] | 6.31 | 6.09 | > 25 µM |  |  |
| Cc1cc(Nc2n[nH]c3ccc(S(=O)(=O)N[C@H]4CCOC4)cc23)ccc1F [Compound 12] | 5.28 | < 4.60 | > 25 µM |  |  |
| CC(C)NS(=O)(=O)c1ccc2[nH]nc(Nc3ccc(F)c(F)c3)c2c1 [Compound 13] | 5.05 | < 4.60 | > 25 µM |  |  |
| O=S(=O)(NC1CCCCC1)c1ccc2[nH]nc(Nc3ccc(F)cc3)c2c1 [Compound 3] | 6.00 | 5.34 | > 25 µM |  |  |
| O=S(=O)(NC1CCCC1)c1ccc2c(c1)c(Nc1ccc(F)cc1)nn2C1CC1 [Compound 8] | 6.68 | 6.21 | > 25 µM |  |  |
| Cc1cc(Nc2nn(C)c3ccc(S(=O)(=O)N[C@H]4CCOC4)cc23)ccc1F [Compound 14] | 5.96 | 5.07 | > 25 µM |  |  |
| O=S(=O)(N[C@H]1CCOC1)c1ccc2[nH]nc(Nc3ccc(F)c(F)c3)c2c1 [Compound 11] | 5.48 | 4.91 | > 25 µM |  |  |
| CC(=O)n1nc(Nc2ccc(F)cc2)c2cc(S(=O)(=O)NC3CCCC3)ccc21 [Compound 9] | < 4.30 | 4.74 | > 25 µM |  |  |

— US9156839B2, “Fused bicyclic sulfamoyl derivatives and the use thereof as medicaments for the treatment of hepatitis B” (JANSSEN SCIENCES IRELAND UC, priority 2012, dated 2015)
